Measured values reported in US12329158B2, “Large-scale methods of uniformly coating packaging surfaces with a volatile antimicrobial to preserve food freshness” (AGROFRESH INC., priority 2013, dated 2025).
Like-named read-outs stand apart in the source and are kept apart here.

What was measured:
Assay in all cases: Volatile MIC of Samples 1-4 (Example 19)
Type in all cases: cell-based
[1] = system: Glomerella cingulata; conditions: 50 µl/disk; first test (Table 15)
[2] = system: Botrytis cinerea; conditions: 50 µl/disk; for MIC: Botrytis cinerea, read-out: MIC mg/l Botrytis cinerea
Method: A 3-ml volume of full-strength Potato Dextrose Agar (PDA) is added to each well. […] Cat. No. 1001-0155) are placed on the underside of a polyethylene PCR plate sealing film. […] The acetone is permitted to evaporate for 5 minutes. The headspace around the Botrytis cinerea inoculum is then sealed inside the well by the film with the adhering disk containing the fungicide. Plates are inverted to prevent any possibility of the chemical from flaking from the disk and falling onto the inoculated agar.

[3] = system: Monilinia fructicola; conditions: 50 µl/disk
[4] = system: Penicillium expansum; conditions: 50 µl/disk
[5] = system: Alternaria alternata; conditions: 50 µl/disk; for MIC: Alternaria alternata, read-out: MIC mg/l Alternaria alternata

| MIC mg/l Glomerella cingulata [1] | MIC mg/l Botrytis cinerea ([2]; first test (Table 15)) | MIC mg/l Botrytis cinerea ([2]; repeat test (Table 16)) | MIC mg/l Monilinia fructicola ([3]; first test (Table 15)) | MIC mg/l Penicillium expansum ([4]; first test (Table 15)) | MIC mg/l Penicillium expansum ([4]; repeat test (Table 16)) | MIC mg/l Alternaria alternata ([5]; first test (Table 15)) | MIC ([2]; first test (Table 15)) | MIC ([2]; repeat test (Table 16)) | MIC ([3]; Monilinia fructicola, repeat test (Table 16), read-out: MIC mg/l Monilinia fructicola) | MIC ([4]; Penicillium expansum, first test (Table 15), read-out: MIC mg/l Penicillium expansum) | MIC ([5]; first test (Table 15)) | MIC ([5]; repeat test (Table 16)) | SMILES | MIC mg/l Monilinia fructicola ([3]; repeat test (Table 16)) | MIC mg/l Alternaria alternata ([5]; repeat test (Table 16)) |
| --- | --- | --- | --- | --- | --- | --- | --- | --- | --- | --- | --- | --- | --- | --- | --- |
| 142.9 mg/L | <0.6 mg/L | 2.2 mg/L | 35.7 mg/L | 8.9 mg/L | 8.9 mg/L | 8.9 mg/L |  |  |  |  |  |  | c1ccc2c(c1)COB2OCCOB1OCc2ccccc21 [Sample 2] |  |  |
|  |  |  |  |  | 8.9 mg/L |  | < 0.6 mg/L | 0.6 mg/L | 2.2 mg/L | 8.9 mg/L | 22 mg/L | > 2.2 mg/L | Fc1ccc2c(c1)COB2OCCOB1OCc2cc(F)ccc21 [Sample 1] |  |  |
|  | <0.6 mg/L | 1.1 mg/L |  | 4.5 mg/L | 8.9 mg/L | 2.2 mg/L |  |  |  |  |  |  | CC(C)(OB1OCc2cc(F)ccc21)C(C)(C)OB1OCc2cc(F)ccc21 [Sample 3] | 1.1 mg/L | >2.2 mg/L |

| SMILES | MIC mg/l Glomerella cingulata [1] | MIC mg/l Botrytis cinerea ([2]; first test (Table 15)) | MIC mg/l Botrytis cinerea ([2]; repeat test (Table 16)) | MIC mg/l Monilinia fructicola ([3]; first test (Table 15)) | MIC mg/l Penicillium expansum ([4]; first test (Table 15)) | MIC mg/l Penicillium expansum ([4]; repeat test (Table 16)) | MIC mg/l Alternaria alternata ([5]; first test (Table 15)) | MIC ([2]; first test (Table 15)) | MIC ([2]; repeat test (Table 16)) | MIC ([3]; Monilinia fructicola, repeat test (Table 16), read-out: MIC mg/l Monilinia fructicola) | MIC ([4]; Penicillium expansum, first test (Table 15), read-out: MIC mg/l Penicillium expansum) | MIC ([5]; first test (Table 15)) | MIC ([5]; repeat test (Table 16)) | MIC mg/l Monilinia fructicola ([3]; repeat test (Table 16)) | MIC mg/l Alternaria alternata ([5]; repeat test (Table 16)) |
| --- | --- | --- | --- | --- | --- | --- | --- | --- | --- | --- | --- | --- | --- | --- | --- |
| CC(COB1OCc2cc(F)ccc21)OB1OCc2cc(F)ccc21 (stereo not shown) [Sample 4] |  | <0.6 mg/L | 0.6 mg/L |  | 8.9 mg/L | 8.9 mg/L | 1.1 mg/L |  |  |  |  |  |  | 1.1 mg/L | >2.2 mg/L |
